# Assay results published in patent US7605156B2, “Methods for the use of inhibitors of cytosolic phospholipase A2” (Wyeth, priority 2001, dated 2009).
# Target: T1, cPLA2 (Homo sapiens, UniProt P47712)
# T1 sequence (P47712 1-749): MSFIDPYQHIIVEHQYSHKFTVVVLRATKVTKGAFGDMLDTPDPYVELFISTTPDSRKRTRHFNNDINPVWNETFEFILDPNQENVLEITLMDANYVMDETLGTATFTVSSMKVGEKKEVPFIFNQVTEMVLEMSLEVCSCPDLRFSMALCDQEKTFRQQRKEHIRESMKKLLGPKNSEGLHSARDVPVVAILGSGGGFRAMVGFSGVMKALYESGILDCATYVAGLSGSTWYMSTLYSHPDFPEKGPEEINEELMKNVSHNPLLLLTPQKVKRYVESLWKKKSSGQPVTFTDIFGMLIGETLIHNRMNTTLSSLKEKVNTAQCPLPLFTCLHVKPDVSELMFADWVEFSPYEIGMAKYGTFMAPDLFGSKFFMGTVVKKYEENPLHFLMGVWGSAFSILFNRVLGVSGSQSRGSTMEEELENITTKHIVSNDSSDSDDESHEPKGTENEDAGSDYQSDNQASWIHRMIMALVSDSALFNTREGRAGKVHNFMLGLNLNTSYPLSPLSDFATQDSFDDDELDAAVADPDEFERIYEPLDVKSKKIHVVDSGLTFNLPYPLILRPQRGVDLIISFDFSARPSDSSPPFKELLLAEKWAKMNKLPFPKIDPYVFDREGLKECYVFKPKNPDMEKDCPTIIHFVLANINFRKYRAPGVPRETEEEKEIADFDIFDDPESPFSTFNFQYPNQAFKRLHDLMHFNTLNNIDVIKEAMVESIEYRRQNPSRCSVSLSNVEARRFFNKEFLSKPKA
# Experiment: Coumarine assay (hydrolysis of 7-hydroxycoumarinyl 6-heptenoate)
# Assay type: biochemical
# Settings: 60 μM 7-hydroxycoumarinyl 6-heptenoate, pH 7.5; read-out: Coumarin IC50
row,IC50,Compound
1,320 nM,"Cc1c(Cl)cccc1S(=O)(=O)NCCc1c(CCCc2ccc(C(=O)O)cc2)c2cc(Cl)ccc2n1C(c1ccccc1)c1ccccc1 [Example 240, 4-{3-[1-benzhydryl-5-chloro-2(2-{[(3-chloro-2-methylphenyl)sulfonyl]amino}ethyl)-1H-indol-3-yl]propyl}benzoic acid]"
2,340 nM,"Cc1ccccc1S(=O)(=O)NCCc1c(CCOc2ccc(C(=O)O)cc2)c2cc(Cl)ccc2n1C(c1ccccc1)c1ccccc1 [Example 233, 4-{2-[1-benzhydryl-5-chloro-2-(2-{[(2-methylphenyl)sulfonyl]amino}ethyl)-1H-indol-3-yl]ethoxy}benzoic acid]"
3,370 nM,"Cc1ccc(S(=O)(=O)NCCc2c(CCOc3ccc(C(=O)O)cc3)c3cc(Cl)ccc3n2C(c2ccccc2)c2ccccc2)cc1Cl [Example 260, 4-{2-[1-benzhydryl-5-chloro-2-(2-{[(3-chloro-4-methylphenyl)sulfonyl]amino}ethyl)-1H-indol-3-yl]ethoxy}benzoic acid]"
4,1300 nM,"CC(=O)N1C(C)CN(CCS(=O)(=O)NCCc2c(CCOc3ccc(C(=O)O)cc3)c3cc(Cl)ccc3n2C(c2ccccc2)c2ccccc2)CC1C (centres unmarked) [Example 244, 4-[2-(2-{2-[2-(4-Acetyl-3,5-dimethyl-piperazin-1-yl)-ethanesulfonylamino]-ethyl}-1-benzhydryl-5-chloro-1H-indol-3-yl)-ethoxy]-benzoic acid]"
5,400 nM,"Cc1c(S(=O)(=O)NCCc2c(CCOc3ccc(C(=O)O)cc3)c3cc(Cl)ccc3n2C(c2ccccc2)c2ccccc2)cnn1-c1ccccc1 [Example 211, 4-{2-[1-benzhydryl-5-chloro-2-(2-{[(5-methyl-1-phenyl-1H-pyrazol-4-yl)sulfonyl]amino}ethyl)-1H-indol-3-yl]ethoxy}benzoic acid]"
6,600 nM,"CC(CCl)c1ccccc1S(=O)(=O)NCCc1c(CCCc2ccc(C(=O)O)cc2)c2cc(Cl)ccc2n1C(c1ccccc1)c1ccccc1 (centres unmarked) [Example 277, 4-(3-{1-Benzhydryl-5-chloro-2-[2-({[2-(2-chloro-1-methylethyl)phenyl]sulfonyl}amino)ethyl]-1H-indol-3-yl}propyl)benzoic acid]"
7,180 nM,"COc1ccccc1S(=O)(=O)NCCc1c(CCOc2ccc(C(=O)O)cc2)c2cc(Cl)ccc2n1C(c1ccccc1)c1ccccc1 [Example 235, 4-{2-[1-benzhydryl-5-chloro-2-(2-{[(2-methoxyphenyl)sulfonyl]amino}ethyl)-1H-indol-3-yl]ethoxy}benzoic acid]"
8,400 nM,"O=C(O)c1ccc(OCCc2c(CCNS(=O)(=O)c3c(F)cccc3F)n(C(c3ccccc3)c3ccccc3)c3ccc(Cl)cc23)cc1 [Example 225, 4-{2-[1-benzhydryl-5-chloro-2-(2-{[(2,6-difluorophenyl)sulfonyl]amino}ethyl)-1H-indol-3-yl]ethoxy}benzoic acid]"
9,260 nM,"O=C(O)c1ccc(CCCc2c(CCNS(=O)(=O)c3ccccc3Cl)n(C(c3ccccc3)c3ccccc3)c3ccc(Cl)cc23)cc1 [Example 254, 4-{3-[1-benzhydryl-5-chloro-2-(2-{[(2-chlorophenyl)sulfonyl]amino}ethyl)-1H-indol-3-yl]propyl}benzoic acid]"
10,240 nM,O=C(O)c1ccc(CCCc2c(CCNS(=O)(=O)c3ccccc3C(F)(F)F)n(C(c3ccccc3)c3ccccc3)c3ccc(Cl)cc23)cc1 [Example 208]
11,480 nM,"CSc1ccccc1S(=O)(=O)NCCc1c(CCOc2ccc(C(=O)O)cc2)c2cc(Cl)ccc2n1C(c1ccccc1)c1ccccc1 [Example 239, 4-(2-{1-benzhydryl-5-chloro-2-[2-({[2-(methylthio)phenyl]sulfonyl}amino)ethyl]-1H-indol-3-yl}ethoxy)benzoic acid]"
12,140 nM,Cc1cccc(Cl)c1S(=O)(=O)NCCc1c(CCCc2ccc(C(=O)O)cc2)c2cc(Cl)ccc2n1C(c1ccccc1)c1ccccc1 [Example 226]
13,600 nM,"O=C(O)c1ccc(S(=O)(=O)CCc2c(CCNS(=O)(=O)c3ccccc3Cl)n(C(c3ccccc3)c3ccccc3)c3ccc(Cl)cc23)cc1 [Example 256, 4-({2-[1-benzhydryl-5-chloro-2-(2-{[(2-chlorophenyl)sulfonyl]amino}ethyl)-1H-indol-3-yl]ethyl}sulfonyl)benzoic acid]"
14,400 nM,O=C(O)c1ccc(CCCc2c(CCNS(=O)(=O)c3ccc(C(F)(F)F)cc3)n(C(c3ccccc3)c3ccccc3)c3ccc(Cl)cc23)cc1 [Example 228]
15,350 nM,"O=C(O)c1ccc(CCCc2c(CCNS(=O)(=O)C3CC3)n(C(c3ccccc3)c3ccccc3)c3ccc(Cl)cc23)cc1 [Example 280, 4-[3-(1-benzhydryl-5-chloro-2-{2-[(cyclopropylsulfonyl)amino]-ethyl}-1H-indol-3-yl)propyl]benzoic acid]"

# Second part, the compound before the results:
row,Compound,IC50
1,"O=C(O)c1ccc(CCCc2c(CCNS(=O)(=O)c3c(Cl)cc(Cl)cc3Cl)n(C(c3ccccc3)c3ccccc3)c3ccc(Cl)cc23)cc1 [Example 154, 4-{3-[1-benzhydryl-5-chloro-2-(2-([(2,4,6-trichlorophenyl)sulfonyl]amino}ethyl)-1H-indol-3-yl]propyl}benzoic acid]",350 nM
2,"O=C(O)c1ccc(OCCc2c(CCNS(=O)(=O)c3ccc(Cl)cc3Cl)n(C(c3ccccc3)c3ccccc3)c3ccc(Cl)cc23)cc1 [Example 159, 4-{2-[1-benzhydryl-5-chloro-2-(2-{[(2,4-dichlorophenyl)sulfonyl]amino}ethyl)-1H-indol-3-yl]ethoxy}benzoic acid]",650 nM
3,"O=C(O)c1ccc(OCCc2c(CCNS(=O)(=O)c3ccccc3Cl)n(C(c3ccccc3)c3ccccc3)c3ccc(Cl)cc23)cc1F [Example 190, 4-(2-{1-Benzhydryl-5-chloro-2-[2-(2-chloro-benzenesulfonylamino)-ethyl]-1H-indol-3-yl}-ethoxy)-2-fluoro-benzoic acid]",530 nM
4,"CS(=O)(=O)c1ccc(S(=O)(=O)NCCc2c(CCCc3ccc(C(=O)O)cc3)c3cc(Cl)ccc3n2C(c2ccccc2)c2ccccc2)cc1 [Example 202, 4-(3-{1-Benzhydryl-5-chloro-2-{2-({[4-(methysulfonyl)phenyl]sulfonyl}amino)ethyl]-1H-indol-3-yl}propyl)benzoic acid]",300 nM
5,4-(3-{2-[2-({[2-(aminomethyl)phenyl]sulfonyl}amino)ethyl]-1-benzhydryl-5-chloro-1H-indol-3-yl}propyl)benzoic acid [Example 156],160 nM
6,"O=C(O)c1ccc(CCCc2c(CCNS(=O)(=O)c3cc(F)c(Cl)cc3F)n(C(c3ccccc3)c3ccccc3)c3ccc(Cl)cc23)cc1 [Example 168, 4-{3-[1-benzhydryl-5-chloro-2-(2-{[(4-chloro-2,5-difluorophenyl)sulfonyl]amino}ethyl)-1H-indol-3-yl]propyl}benzoic acid]",270 nM
7,"O=C(O)c1ccc(CCCc2c(CCNS(=O)(=O)c3ccccc3-c3ccccc3)n(C(c3ccccc3)c3ccccc3)c3ccc(Cl)cc23)cc1 [Example 157, 4-[3-(1-benzhydryl-2-{2-[(1,1′-biphenyl-2-ylsulfonyl)amino]ethyl}-5-chloro-1H-indol-3-yl)propyl]benzoic acid]",200 nM
8,"4-{2-[1-benzhydryl-5-chloro-2-(2-{[(2,6-dimethylbenzyl)sulfonyl]amino}ethyl)-1H-indol-3-yl]ethoxy}benzoic acid [Example 279]",160 nM
9,"4-(2-{1-benzhydryl-5-chloro-2-[2-({[(5,6-dichloropyridine-2-yl)methyl]sulfonyl}amino)ethyl]-1H-indol-3-yl}ethoxy)benzoic acid [Example 76]",400 nM
10,"O=C(O)c1ccc(OCCc2c(CCNS(=O)(=O)c3ccc(Cl)c4nonc34)n(C(c3ccccc3)c3ccccc3)c3ccc(Cl)cc23)cc1 [Example 174, 4-{2-[1-benzhydryl-5-chloro-2-(2-{[(7-chloro-2,1,3-benzoxadiazol-4-yl)sulfonyl]amino}ethyl)-1H-indol-3-yl]ethoxy}benzoic acid]",1100 nM
11,"O=C(O)c1ccc(CCCc2c(CCNS(=O)(=O)c3ccccc3Br)n(C(c3ccccc3)c3ccccc3)c3ccc(Cl)cc23)cc1 [Example 158, 4-{3-[1-benzhydryl-2-(2-{[(2-bromophenyl)sulfonyl]amino}ethyl)-5-chloro-1H-indol-3-yl]propyl}benzoic acid]",200 nM
12,"NCc1ccccc1S(=O)(=O)NCCc1c(CCOc2ccc(C(=O)O)cc2)c2cc(Cl)ccc2n1C(c1ccccc1)c1ccccc1 [Example 163, 4-(2-{2-[2-({[2-(aminomethyl)phenyl]sulfonyl}amino)ethyl]-1-benzhydryl-5-chloro-1H-indol-3-yl}ethoxy)benzoic acid]",300 nM
13,"O=S(=O)(NCCc1c(CCOc2ccc(-c3nn[nH]n3)cc2)c2cc(Cl)ccc2n1C(c1ccccc1)c1ccccc1)c1ccccc1Cl [Example 193, N-[2-(1-benzhydryl-5-chloro-3-{2-[4-(2H-tetrazol-5-yl)-phenoxy]-ethyl}-1H-indol-2-yl)-ethyl]-2-chlorobenzenesulfonamide]",1800 nM
14,Nc1ccccc1CS(=O)(=O)NCCc1c(CCOc2ccc(C(=O)O)cc2)c2cc(Cl)ccc2n1C(c1ccccc1)c1ccccc1 [Example 16],980 nM
